Test results: patent US11104674B2 (Hoffmann-La Roche Inc., priority 2016, dated 2021)

System: HBsAg
Experiment: HBsAg assay (chemiluminescence immunoassay of secreted HBsAg)
Assay type: cell-based, HBV
Settings: Hepatitis B virus, HepG2.2.15, HBsAg secretion, HepG2.2.15 cells, CLIA of culture supernatant
Procedure: HepG2.2.15 cells (Acs et al. Proc Natl Acad Sci USA, 84, (1987), 4641-4), a constitutively HBV-expressing cell line were cultured in DMEM+Glutamax-I medium (Invitrogen, Carlsbad, Calif., USA), supplemented with 10% fetal bovine serum (Invitrogen) and G418 (Invitrogen) at a final concentration of 200 mg/L and maintained in 5% CO2 at 37° C.
HepG2.2.15 cells were seeded in duplicate into white, 96-well plates at 1.5×10^4 cells/well. The cells were treated with a three-fold serial dilution series of the compounds in DMSO. The final DMSO concentration in all wells was 1% and DMSO was used as no drug control.
The HBsAg chemiluminescence immunoassay (CLIA) kit (Autobio Diagnostics Co., Zhengzhou, China, Catalog number: CL0310-2) was used to measure the levels of secreted HBV antigens semi-quantitatively. For the detection 50 μL/well culture supernatant was used and HBsAg was quantified using HBsAg chemiluminescence immunoassay (CLIA) kit (Autobio Diagnostics Co., Zhengzhou, China, Catalog number: CL0310-2), 50 μL of the supernatant was transferred to the CLIA assay plate and 50 μL of enzyme conjugate reagent was added into each well. The plates were sealed and gently agitated for 1 hour at room temperature. The supernatant-enzyme-mixture was discarded and wells were washed 6 times with 300 μL of PBS.
The residual liquid was removed by plating the CLIA plate right side down on absorbent tissue paper. 25 μL of substrates A and B were added to each well. Luminance was measured using a luminometer (Mithras LB 940 Multimode Microplate Reader) after 10 minutes incubation. Dose-response curves were generated and the IC50 value was extrapolated by using the E-WorkBook Suite (ID Business Solutions Ltd., Guildford, UK). The IC50 was defined as the compound concentration (or conditioned media log dilution) at which HBsAg secretion was reduced by 50% compared to the no drug control.
The compounds according to formula I were tested for their capacity to inhibit HBsAg as described herein.

Work on `CC1c2cnc(-c3ncccn3)nc2CCN1c1cc(N2CCCC2CO)cc(F)n1` (centres unmarked) [Example 30, [1-[2-fluoro-6-(5-methyl-2-pyrimidin-2-yl-7,8-dihydro-5H-pyrido[4,3-d]pyrimidin-6-yl)-4-pyridyl]pyrrolidin-2-yl]methanol] yielded an IC50 of 7 nM.
For `CC1c2cnc(-c3ncccn3)nc2CCN1c1cc(F)cc(N2CCCC2CO)n1` (centres unmarked) [Example 31, [1-[4-fluoro-6-(5-methyl-2-pyrimidin-2-yl-7,8-dihydro-5H-pyrido[4,3-d]pyrimidin-6-yl)-2-pyridyl]pyrrolidin-2-yl]methanol], the IC50 was 14 nM.
With `CC1c2cnc(-c3ncccn3)nc2CCN1c1cc(N2CCCC2C(=O)O)cc(F)n1` (centres unmarked) [Example 32, 1-[2-fluoro-6-(5-methyl-2-pyrimidin-2-yl-7,8-dihydro-5H-pyrido[4,3-d]pyrimidin-6-yl)-4-pyridyl]pyrrolidine-2-carboxylic acid] the IC50 was 391 nM.
In the case of `CC1c2cnc(-c3ncccn3)nc2CCN1c1cc(F)cc(N2CCCC2C(=O)O)n1` (centres unmarked) [Example 33, 1-[4-fluoro-6-(5-methyl-2-pyrimidin-2-yl-7,8-dihydro-5H-pyrido[4,3-d]pyrimidin-6-yl)-2-pyridyl]pyrrolidine-2-carboxylic acid], the IC50 is reported as 93 nM.
`COCC1CCCN1c1cc(F)nc(N2CCc3nc(-c4ncccn4)ncc3C2C)c1` (centres unmarked) [Example 34, 6-[6-fluoro-4-[2-(methoxymethyl)pyrrolidin-1-yl]-2-pyridyl]-5-methyl-2-pyrimidin-2-yl-7,8-dihydro-5H-pyrido[4,3-d]pyrimidine] showed an IC50 of 54 nM.
For `COCC1CCCN1c1cc(F)cc(N2CCc3nc(-c4ncccn4)ncc3C2C)n1` (centres unmarked) [Example 35, 6-[4-fluoro-6-[2-(methoxymethyl)pyrrolidin-1-yl]-2-pyridyl]-5-methyl-2-pyrimidin-2-yl-7,8-dihydro-5H-pyrido[4,3-d]pyrimidine], the IC50 was 33 nM.
Molecule `CC1c2cnc(-c3ncccn3)nc2CCN1c1cc(N2CCC(O)C2)cc(F)n1` (centres unmarked) [Example 36, 1-[2-fluoro-6-(5-methyl-2-pyrimidin-2-yl-7,8-dihydro-5H-pyrido[4,3-d]pyrimidin-6-yl)-4-pyridyl]pyrrolidin-3-ol] has an IC50 of 12 nM.
In the case of `CC1c2cnc(-c3ncccn3)nc2CCN1c1cc(F)cc(N2CCC(O)C2)n1` (centres unmarked) [Example 37, 1-[4-fluoro-6-(5-methyl-2-pyrimidin-2-yl-7,8-dihydro-5H-pyrido[4,3-d]pyrimidin-6-yl)-2-pyridyl]pyrrolidin-3-ol], the IC50 is reported as 11 nM.
`CC1c2cnc(-c3ncccn3)nc2CCN1c1cc(N2CCC(C(=O)O)C2)cc(F)n1` (centres unmarked) [Example 38, 1-[2-fluoro-6-(5-methyl-2-pyrimidin-2-yl-7,8-dihydro-5H-pyrido[4,3-d]pyrimidin-6-yl)-4-pyridyl]pyrrolidine-3-carboxylic acid] was tested, and the IC50 was 1010 nM.
Molecule `CC1c2cnc(-c3ncccn3)nc2CCN1c1cc(F)cc(N2CCC(C(=O)O)C2)n1` (centres unmarked) [Example 39, 1-[4-fluoro-6-(5-methyl-2-pyrimidin-2-yl-7,8-dihydro-5H-pyrido[4,3-d]pyrimidin-6-yl)-2-pyridyl]pyrrolidine-3-carboxylic acid] has an IC50 of 108 nM.
With `CC1COCCN1c1cc(F)nc(N2CCc3nc(-c4ncccn4)ncc3C2C)c1` (centres unmarked) [Example 40, 4-[2-fluoro-6-(5-methyl-2-pyrimidin-2-yl-7,8-dihydro-5H-pyrido[4,3-d]pyrimidin-6-yl)-4-pyridyl]-3-methyl-morpholine] the IC50 was 10 nM.
`CC1COCCN1c1cc(F)cc(N2CCc3nc(-c4ncccn4)ncc3C2C)n1` (centres unmarked) [Example 41, 4-[4-fluoro-6-(5-methyl-2-pyrimidin-2-yl-7,8-dihydro-5H-pyrido[4,3-d]pyrimidin-6-yl)-2-pyridyl]-3-methyl-morpholine] showed an IC50 of 17 nM.
For `CC1c2cnc(-c3ncccn3)nc2CCN1c1cc(N2CCCC2C(N)=O)cc(F)n1` (centres unmarked) [Example 42, 1-[2-fluoro-6-(5-methyl-2-pyrimidin-2-yl-7,8-dihydro-5H-pyrido[4,3-d]pyrimidin-6-yl)-4-pyridyl]pyrrolidine-2-carboxamide], the IC50 was 319 nM.
Work on `CC1c2cnc(-c3ncccn3)nc2CCN1c1cc(F)cc(N2CCCC2C(N)=O)n1` (centres unmarked) [Example 43, 1-[4-fluoro-6-(5-methyl-2-pyrimidin-2-yl-7,8-dihydro-5H-pyrido[4,3-d]pyrimidin-6-yl)-2-pyridyl]pyrrolidine-2-carboxamide] yielded an IC50 of 134 nM.
For `CC1c2cnc(-c3ncccn3)nc2CCN1c1cc(N2CCC(C(N)=O)C2)cc(F)n1` (centres unmarked) [Example 44, 1-[2-fluoro-6-(5-methyl-2-pyrimidin-2-yl-7,8-dihydro-5H-pyrido[4,3-d]pyrimidin-6-yl)-4-pyridyl]pyrrolidine-3-carboxamide], the IC50 was 54 nM.
In the case of `CC1c2cnc(-c3ncccn3)nc2CCN1c1cc(F)cc(N2CCC(C(N)=O)C2)n1` (centres unmarked) [Example 45, 1-[4-fluoro-6-(5-methyl-2-pyrimidin-2-yl-7,8-dihydro-5H-pyrido[4,3-d]pyrimidin-6-yl)-2-pyridyl]pyrrolidine-3-carboxamide], the IC50 is reported as 18 nM.
With `CC1c2cnc(-c3ncccn3)nc2CCN1c1cc(N2CCOC(C(N)=O)C2)cc(F)n1` (centres unmarked) [Example 46, 4-[2-Fluoro-6-(5-methyl-2-pyrimidin-2-yl-7,8-dihydro-5H-pyrido[4,3-d]pyrimidin-6-yl)-4-pyridyl]morpholine-2-carboxamide] the IC50 was 36 nM.
`CC1c2cnc(-c3ncccn3)nc2CCN1c1cc(F)cc(N2CCOC(C(N)=O)C2)n1` (centres unmarked) [Example 47, 4-[4-fluoro-6-(5-methyl-2-pyrimidin-2-yl-7,8-dihydro-5H-pyrido[4,3-d]pyrimidin-6-yl)-2-pyridyl]morpholine-2-carboxamide] was tested, and the IC50 was 33 nM.
Molecule `CC1c2cnc(-c3ncccn3)nc2CCN1c1cc(NC2CCOCC2)cc(F)n1` (centres unmarked) [Example 48, 2-fluoro-6-(5-methyl-2-pyrimidin-2-yl-7,8-dihydro-5H-pyrido[4,3-d]pyrimidin-6-yl)-N-tetrahydropyran-4-yl-pyridin-4-amine] has an IC50 of 55 nM.
`CC1c2cnc(-c3ncccn3)nc2CCN1c1cc(F)cc(NC2CCOCC2)n1` (centres unmarked) [Example 49, 4-fluoro-6-(5-methyl-2-pyrimidin-2-yl-7,8-dihydro-5H-pyrido[4,3-d]pyrimidin-6-yl)-N-tetrahydropyran-4-yl-pyridin-2-amine] was tested, and the IC50 was 56 nM.
With `CC1c2cnc(-c3ncccn3)nc2CCN1c1cc(N2CCNC(C(=O)O)C2)cc(F)n1` (centres unmarked) [Example 50, 4-[2-Fluoro-6-(5-methyl-2-pyrimidin-2-yl-7,8-dihydro-5H-pyrido[4,3-d]pyrimidin-6-yl)-4-pyridyl]piperazine-2-carboxylic acid] the IC50 was 1940 nM.
`CC1c2cnc(-c3ncccn3)nc2CCN1c1cc(F)cc(N2CCC(C(=O)O)CC2)n1` (centres unmarked) [Example 51, 1-[4-fluoro-6-(5-methyl-2-pyrimidin-2-yl-7,8-dihydro-5H-pyrido[4,3-d]pyrimidin-6-yl)-2-pyridyl]piperidine-4-carboxylic acid] gave an IC50 of 346 nM.
`CC1c2cnc(-c3ncccn3)nc2CCN1c1cc(N2CCC(C(=O)O)CC2)cc(F)n1` (centres unmarked) [Example 52, 1-[2-fluoro-6-(5-methyl-2-pyrimidin-2-yl-7,8-dihydro-5H-pyrido[4,3-d]pyrimidin-6-yl)-4-pyridyl]piperidine-4-carboxylic acid] showed an IC50 of 1040 nM.
For `CC1c2cnc(-c3ncccn3)nc2CCN1c1cc(F)cc(N2CC(C(=O)O)C2)n1` (centres unmarked) [Example 53, 1-[4-fluoro-6-(5-methyl-2-pyrimidin-2-yl-7,8-dihydro-5H-pyrido[4,3-d]pyrimidin-6-yl)-2-pyridyl]azetidine-3-carboxylic acid], the IC50 was 4710 nM.
With `CC1c2cnc(-c3ncccn3)nc2CCN1c1cc(N2CC(C(=O)O)C2)cc(F)n1` (centres unmarked) [Example 54, 1-[2-fluoro-6-(5-methyl-2-pyrimidin-2-yl-7,8-dihydro-5H-pyrido[4,3-d]pyrimidin-6-yl)-4-pyridyl]azetidine-3-carboxylic acid] the IC50 was 6340 nM.
Work on `CC1c2cnc(-c3ncccn3)nc2CCN1c1cc(F)cc(N2CCC(C(N)=O)CC2)n1` (centres unmarked) [Example 55, 1-[4-fluoro-6-(5-methyl-2-pyrimidin-2-yl-7,8-dihydro-5H-pyrido[4,3-d]pyrimidin-6-yl)-2-pyridyl]piperidine-4-carboxamide] yielded an IC50 of 72 nM.
`CC1c2cnc(-c3ncccn3)nc2CCN1c1cc(N2CCC(C(N)=O)CC2)cc(F)n1` (centres unmarked) [Example 56, 1-[2-fluoro-6-(5-methyl-2-pyrimidin-2-yl-7,8-dihydro-5H-pyrido[4,3-d]pyrimidin-6-yl)-4-pyridyl]piperidine-4-carboxamide] was tested, and the IC50 was 37 nM.
In the case of `CC1c2cnc(-c3ncccn3)nc2CCN1c1cc(F)cc(N2CCN(S(C)(=O)=O)CC2)n1` (centres unmarked) [Example 57, 6-[4-fluoro-6-(4-methylsulfonylpiperazin-1-yl)-2-pyridyl]-5-methyl-2-pyrimidin-2-yl-7,8-dihydro-5H-pyrido[4,3-d]pyrimidine], the IC50 is reported as 28 nM.
`CC1c2cnc(-c3ncccn3)nc2CCN1c1cc(N2CCN(S(C)(=O)=O)CC2)cc(F)n1` (centres unmarked) [Example 58, 6-[6-fluoro-4-(4-methylsulfonylpiperazin-1-yl)-2-pyridyl]-5-methyl-2-pyrimidin-2-yl-7,8-dihydro-5H-pyrido[4,3-d]pyrimidine] was tested, and the IC50 was 15 nM.
